# Target: T1, rat EP1 receptor (Rattus norvegicus, UniProt P70597)
# T1 construct: expressed in transfected cells; host or cells: COS-1 cells, transient transfection with Lipofectamine 2000
# T1 sequence (P70597 1-405): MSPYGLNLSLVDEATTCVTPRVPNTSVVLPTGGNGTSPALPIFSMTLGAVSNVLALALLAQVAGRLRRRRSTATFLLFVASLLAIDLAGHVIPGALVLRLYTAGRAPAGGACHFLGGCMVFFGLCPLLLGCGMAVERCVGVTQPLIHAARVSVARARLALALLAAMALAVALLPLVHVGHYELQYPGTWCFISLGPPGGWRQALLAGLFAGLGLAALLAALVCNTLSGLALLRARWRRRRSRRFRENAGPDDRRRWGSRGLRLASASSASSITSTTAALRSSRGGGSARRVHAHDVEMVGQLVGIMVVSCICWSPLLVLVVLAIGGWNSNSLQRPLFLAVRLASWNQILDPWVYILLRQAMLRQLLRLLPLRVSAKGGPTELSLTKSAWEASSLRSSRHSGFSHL
# Experiment: Test for confirmation of EP1 receptor antagonism: inhibition of prostaglandin E2-induced increase in intracellular calcium concentration (Method A or Method B)
# Type: cell-based
# Settings: Method A (Fluo-4 NW, FlexStation); rat EP1 receptor-expressing cells; prostaglandin E2 10 nM
# Procedure: (1) Preparation of Rat EP1 Expression vector
# Using Rat Kidney BD Marathon-Ready cDNA (Nippon Becton Dickinson Company, Ltd.) as a template, a forward primer shown in SEQ ID NO. 1, and a reverse primer shown in SEQ ID NO. 2, a first run of PCR was carried out using KOD-Plus-Ver 2.0 (Toyobo Co., Ltd.). Further, using this amplification product as a template, a forward primer shown in SEQ ID NO. 3, and a reverse primer shown in SEQ ID NO. 4, a second run of PCR was carried out in the same manner. The amplification product obtained by the second run of PCR was incorporated into a vector (pcDNA3.1 D/V5-His-TOPO (registered trademark), Invitrogen Japan K. K.). By a conventional method, the vector containing this amplification product was introduced to E. coli (One Shot TOP10 Competent Cells, Invitrogen Corporation) to transform. This transformed E. coli was cultured in an LB agar medium for one day. After the culture, colonies were selected and cultured in an LB liquid medium containing 50 μg/mL of ampicillin. After the culture, the vector was purified using a QIAprep Spin Miniprep Kit (Qiagen K. K.). The base sequence of the insertion site of this vector (SEQ ID NO. 5) was compared with the rat EP1 base sequence (Ptger1) registered as an accession number NM_013100 in well-known database (NCBI), and as a result, they all matched except for a single base. Further, the amino acid sequence translated by the base sequence completely matched the amino acid sequence of the rat EP1 receptor registered as an NCBI accession number NP_037232. Therefore, it was confirmed that the cloned gene sequence was a base sequence of the rat EP1 receptor and the obtained amino acid sequence was that of the rat EP1 receptor. The pcDNA3.1 D/V5-His-TOPO (registered trademark) to which the nucleic acid shown in SEQ ID NO. 5 had been inserted was taken as a rat EP1-expressing vector.
# (2) Preparation of Rat EP1 Receptor-Expressing Cells
# COS-1 cells (Dainippon Sumitomo Pharma Co., Ltd.) were cultured until it reached confluence in an incubator at 37° C. under a 5% CO2 gas condition, using a D-MEM liquid medium (high glucose and L-glutamine contained, Invitrogen Corporation) to which a penicillin-streptomycin solution (Invitrogen Corporation, final concentration: 100 U/mL as benzylpenicillin; 100 μg/mL as streptomycin) as an antibiotic, MEM nonessential amino acids (Invitrogen Corporation, final Concentration: 0.1 mM), and fetal calf serum (Sanko Junyaku Co., Ltd., final concentration: 10%) were added.
# (2-2) COS-1 Cell Subculture
# The cells that had reached confluence were stripped with 0.05% trypsin/0.53 mM EDTA 4Na (Invitrogen Japan K. K.) and resuspended in the above liquid medium. The resuspended cells were diluted and cultured in the above liquid medium at a spread ratio from 1:4 to 1:8.
# (2-3) Preparation of Cells for Introduction of Rat EP1-Expressing Vector
# The cells that had reached confluence were stripped with 0.05% trypsin/0.53 mM EDTA.4Na, and resuspended in a D-MEM liquid medium (high glucose and L-glutamine contained, Invitrogen Corporation) to which an MEM nonessential amino acid (final concentration: 0.1 mM) and fetal calf serum (final concentration: 10%) were added. In each well of a Poly D-lysine-coated 96-well microplate (BD BioCoat (registered trademark), Nippon Becton Dickinson Company, Ltd.), this resuspended cell suspension culture was prepared to be 5×10^4 cells/well in 100 μL of the liquid medium, and seeded thereon. After seeding, the cells were cultured in an incubator at 37° C. under a 5% CO2 gas condition. At a point when the cells for introduction of a rat EP1-expressing vector were adhered (about 2 hours after seeding), introduction of the rat EP1-expressing vector was carried out in the following order.
# (2-4) Introduction of Rat EP1-Expressing Vector
# For introduction of the rat EP1-expressing vector, Lipofectamine 2000 (Invitrogen Japan K. K.) was used. […]
row,IC50 [nM],SMILES
1,40,"COc1ccc2c(Cc3cccc(C(=O)O)c3)c(-c3ccsc3)[nH]c2c1 [Example 4-12, 3-(6-methoxy-2-thiophen-3-yl-1H-indol-3-ylmethyl)benzoic acid]"
2,15,"O=C(O)c1cccc(Cc2c(-c3ccccc3)[nH]c3cc(Cl)ccc23)n1 [Example 4-17, 6-(6-chloro-2-phenyl-1H-indol-3-ylmethyl)pyridine-2-carboxylic acid]"
3,28,CCc1ccc2c(Cc3cccc(C(=O)O)n3)c(-c3ccccc3)[nH]c2c1 [Example 4-27]
4,44,"CCOc1ccc2c(Cc3cccc(C(=O)O)n3)c(-c3ccccc3)[nH]c2c1 [Example 4-34, 6-(6-ethoxy-2-phenyl-1H-indol-3-ylmethyl)pyridine-2-carboxylic acid]"
5,18,"Cc1ccc2c(Cc3cccc(C(=O)O)n3)c(-c3ccccc3)[nH]c2c1 [Example 4-35, 6-(6-methyl-2-phenyl-1H-indol-3-ylmethyl)pyridine-2-carboxylic acid]"
6,42,O=C(O)c1cccc(Cc2c(-c3ccccc3)[nH]c3cc(C(F)(F)F)ccc23)n1 [Example 11-3]
7,23,"COc1ccc2c(Cc3cccc(C(=O)O)n3)c(-c3cccc(Cl)c3)[nH]c2c1 [Example 11-21, 6-[2-(3-chlorophenyl)-6-methoxy-1H-indol-3-ylmethyl]pyridine-2-carboxylic acid]"

# Same assay, conditions: Method B (Calcium kit II Fluo 4, FDSS 7000); rat EP1 receptor-expressing cells; prostaglandin E2 10 nM
row,SMILES,IC50 [nM]
1,"CC(C)Cc1cn(-c2cccc(C(=O)O)n2)c2cc(Cl)ccc12 [Comparative Example, sodium 6-(6-chloro-3-isobutylindol-1-yl)pyridine-2-carboxylate, reference compound]",476
2,"COc1ccc2c(Cc3cccc(C(=O)O)n3)c(-c3ccoc3)[nH]c2c1 [Example 11-10, 6-(2-furan-3-yl-6-methoxy-1H-indol-3-ylmethyl)pyridine-2-carboxylic acid]",15
3,"COc1ccc2c(Cc3cccc(C(=O)O)c3)c(-c3ccoc3)[nH]c2c1 [Example 11-15, 3-(2-furan-3-yl-6-methoxy-1H-indol-3-ylmethyl)benzoic acid]",48
4,"COc1ccc2c(Cc3cccc(C(=O)O)n3)c(-c3cccs3)[nH]c2c1 [Example 11-17, 6-(6-methoxy-2-thiophen-2-yl-1H-indol-3-ylmethyl)pyridine-2-carboxylic acid]",50
5,"COc1ccc2c(Cc3cccc(C(=O)O)n3)c(-c3cncs3)[nH]c2c1 [Example 11-24, 6-(6-methoxy-2-thiazol-5-yl-1H-indol-3-ylmethyl)pyridine-2-carboxylic acid]",41
6,COc1ccc2c(Cc3nc(C(=O)O)cs3)c(-c3ccccc3)[nH]c2c1 [Example 11-37],50
7,"COc1ccc2c(Cc3cccc(C(=O)O)n3)c(-c3ccc(F)c(F)c3)[nH]c2c1 [Example 16-2, 6-[2-(3,4-difluorophenyl)-6-methoxy-1H-indol-3-ylmethyl]pyridine-2-carboxylic acid]",23
8,"COc1ccc2c(Cc3cccc(C(=O)O)n3)c(-c3cc(F)c(F)c(F)c3)[nH]c2c1 [Example 16-6, 6-[6-methoxy-2-(3,4,5-trifluorophenyl)-1H-indol-3-ylmethyl]pyridine-2-carboxylic acid]",44
9,"COc1ccc2c(Cc3cccc(C(=O)O)c3F)c(-c3ccccc3)[nH]c2c1 [Example 16-9, 2-fluoro-3-(6-methoxy-2-phenyl-1H-indol-3-ylmethyl)benzoic acid]",41
10,"COc1ccc2c(Cc3cccc(C(=O)O)n3)c(-c3cncc(F)c3)[nH]c2c1 [Example 16-11, 6-[2-(5-fluoropyridin-3-yl)-6-methoxy-1H-indol-3-ylmethyl]pyridine-2-carboxylic acid]",27
11,"COc1ccc2c(Cc3ccc(F)c(C(=O)O)c3)c(-c3ccccc3)[nH]c2c1 [Example 16-18, 2-fluoro-5-(6-methoxy-2-phenyl-1H-indol-3-ylmethyl)benzoic acid]",30
12,"COc1cc2[nH]c(-c3ccsc3)c(Cc3cccc(C(=O)O)n3)c2cc1C [Example 16-24, 6-(6-methoxy-5-methyl-2-thiophen-3-yl-1H-indol-3-ylmethyl)pyridine-2-carboxylic acid]",22
13,"COc1cc2[nH]c(-c3ccsc3)c(Cc3cccc(C(=O)O)n3)c2cc1F [Example 16-28, 6-(5-fluoro-6-methoxy-2-thiophen-3-yl-1H-indol-3-ylmethyl)pyridine-2-carboxylic acid]",30
14,"COc1cc2[nH]c(-c3ccsc3)c(Cc3cccc(C(=O)O)n3)c2cc1Cl [Example 16-29, 6-(5-chloro-6-methoxy-2-thiophen-3-yl-1H-indol-3-ylmethyl)pyridine-2-carboxylic acid]",27

# The next lines start with the values.
row,IC50 [nM],SMILES
1,32,"COc1ccc2c(Cc3cccc(C(=O)O)n3)c(-c3cccnc3)[nH]c2c1 [Example 11-11, 6-(6-methoxy-2-pyridin-3-yl-1H-indol-3-ylmethyl)pyridine-2-carboxylic acid]"
2,31,"COc1ccc2c(Cc3cccc(C(=O)O)n3)c(-c3ccc(F)cc3)[nH]c2c1 [Example 11-13, 6-[2-(4-fluorophenyl)-6-methoxy-1H-indol-3-ylmethyl]pyridine-2-carboxylic acid]"
3,36,"COc1cccc(-c2[nH]c3cc(OC)ccc3c2Cc2cccc(C(=O)O)n2)c1 [Example 11-34, 6-[6-methoxy-2-(3-methoxyphenyl)-1H-indol-3-ylmethyl]pyridine-2-carboxylic acid]"
4,32,"O=C(O)c1cccc(Cc2c(-c3ccccc3)[nH]c3cc(C4CC4)ccc23)n1 [Example 16-8, 6-(6-cyclopropyl-2-phenyl-1H-indol-3-ylmethyl)pyridine-2-carboxylic acid]"
5,23,"COc1cc2[nH]c(-c3ccccc3)c(Cc3cccc(C(=O)O)n3)c2cc1C [Example 16-12, 6-(6-methoxy-5-methyl-2-phenyl-1H-indol-3-ylmethyl)pyridine-2-carboxylic acid]"
6,36,"COc1cc2[nH]c(-c3ccccc3)c(Cc3cccc(C(=O)O)n3)c2cc1Cl [Example 16-13, 6-(5-chloro-6-methoxy-2-phenyl-1H-indol-3-ylmethyl)pyridine-2-carboxylic acid]"
7,25,"COc1cc2[nH]c(-c3ccccc3)c(Cc3cccc(C(=O)O)n3)c2cc1F [Example 16-16, 6-(5-fluoro-6-methoxy-2-phenyl-1H-indol-3-ylmethyl)pyridine-2-carboxylic acid]"
8,24,"Cc1ccc2c(Cc3cccc(C(=O)O)n3)c(-c3ccsc3)[nH]c2c1 [Example 16-21, 6-(6-methyl-2-thiophen-3-yl-1H-indol-3-ylmethyl)pyridine-2-carboxylic acid]"
9,34,"COc1cc2c(Cc3cccc(C(=O)O)n3)c(-c3ccccc3)[nH]c2cc1Cl [Example 16-23, 6-(6-chloro-5-methoxy-2-phenyl-1H-indol-3-ylmethyl)pyridine-2-carboxylic acid]"
